Values joined by “and” are separate entries in the source; they are usually repeats but may differ in a detail not shown here. Identical values can stand only once.
Assays:
[1] = test system: KnmB1; assay: NADPH oxidation of KnmB1 and variants (340 nm); assay type: biochemical, L. rhizosphaerae NEAU-A2
Procedure: Hydrogen peroxide formation assay and NADPH oxidation […]
(§1) NADPH detection was carried out in the cuvette by NanoDrop 2000c (Fisher Scientific). NADPH signal at 340 nm was monitored in time using 6220 M–1 cm–1 as […]
(§2) Spectral data for new compounds […]
Reaction conditions: 50 mM Tris-HCl buffer (pH 7.5), 0.15 mM NADPH, and 2 μM KnmB1 or KnmB2. (e) NADPH oxidation of KnmB1 and variants. (f) NADPH oxidation of KnmB1 in the presence 24/32/36. (g) NADPH oxidation of KnmB1 and variants in the presence 24. Reaction conditions (e-g) for KnmB1 and their variants: 50 mM Tris-HCl buffer (pH 7.5), 0.15 mM NADPH, and 6 μM KnmB1 or variants, or 0.1 mM substrate 24/32/36. […]
2 μM KnmB2 or variants, or 0.1 mM substrate 24/32. […]
Source data are provided as a Source Data file. […]

[2] = test system: KnmB2; assay: NADPH oxidation of KnmB2 and variants (340 nm); assay type: biochemical, L. rhizosphaerae NEAU-A2
Procedure: Hydrogen peroxide formation assay and NADPH oxidation
The hydrogen peroxide formed from KnmB1, KnmB2 and their variants were measured using the Hydrogen Peroxide Assay Kit (Beyotime Industrial Co. Ltd, Shanghai, China)4-5. 5–100 µL of enzyme reaction mixture was added to 100 µL of working reagent (S0038-1). The mixture was incubated for 30 min at 25 °C, at which time the absorbance at 560 nm was measured by NanoDrop 2000c (Fisher Scientific). The level of H2O2 was calculated according to a standard concentration curve from standard […]
as §1, §2
Reaction conditions: 50 mM Tris-HCl buffer (pH 7.5),
0.15 mM NADPH, and 2 μM KnmB1 or KnmB2. […]
μM KnmB1 or variants, or 0.1 mM substrate 24/32/36. (h) NADPH oxidation of KnmB2 and variants. (i) NADPH oxidation of KnmB2 and variants in the presence 24 or 32. (j) H2O2 generation for KnmB2 and variants in the presence 24 or 32. Reaction conditions (h-j) for KnmB2 and their variants: 50 mM Tris-HCl buffer (pH 7.5), 0.15 mM NADPH, 2 μM KnmB2 or variants, or 0.1 mM substrate 24/32. Values are the means ± SD of n = 3 independent experiments, except for KnmB2+24 (T = 40 min), KnmB2-N219D+24 (T = 4 min), KnmB2-Y215F+24 (T= 1 min and 3 min) in i and j, and KnmB2+32 (T= 8 min) in j (n = 2). Source data are provided as a Source Data file. […]

`CC(C)CCCCc1nc(-c2cc(O)cc(C(N)=O)n2)cs1` [Compound 24] was tested, and the “effector action on reduction of flavin in KnmB1 by NADPH” value ([1]; 0.15 mM NADPH, 6 μM KnmB1, 0.1 mM compound (Fig. S131f)) was “could act as a non-substrate effector”, the “NADPH oxidation of KnmB1 in the presence of compound (replicates 1, 2, 3)” value (“NADPH oxidation of KnmB1 … (replicates 1, 2, 3)” for short) ([1]; Time 0) was 0.0000 µM and the “NADPH oxidation of KnmB1 in the presence of compound, average value” (from here on “NADPH oxidation of KnmB1 … average value”) ([1]; Time 0) was 0.0000 µM. For the same compound, the “NADPH oxidation of KnmB1 … (replicates 1, 2, 3)” value ([1]; Time 1) was 2.9582 µM and 2.2830 µM and 2.5080 µM, the “NADPH oxidation of KnmB1 … average value” ([1]; Time 1) was 2.5831 µM and the “NADPH oxidation of KnmB1 … (replicates 1, 2, 3)” value ([1]; Time 2) was 6.8489 µM and 4.6945 µM and 5.9164 µM. For the same compound, the “NADPH oxidation of KnmB1 … average value” ([1]; Time 2) was 5.8199 µM, the “NADPH oxidation of KnmB1 … (replicates 1, 2, 3)” value ([1]; Time 3) was 8.2797 µM and 6.4309 µM and 6.4630 µM and the “NADPH oxidation of KnmB1 … average value” ([1]; Time 3) was 7.0579 µM. The “NADPH oxidation of KnmB1 … (replicates 1, 2, 3)” value ([1]; Time 4) was 9.7106 µM and 8.7942 µM and 8.6174 µM, the “NADPH oxidation of KnmB1 … average value” ([1]; Time 4) was 9.0407 µM and the “NADPH oxidation of KnmB1 … (replicates 1, 2, 3)” value ([1]; Time 5) was 11.9293 µM and 10.4662 µM and 10.1447 µM. The “NADPH oxidation of KnmB1 … average value” ([1]; Time 5) was 10.8467 µM, the “NADPH oxidation of KnmB1 … (replicates 1, 2, 3)” value ([1]; Time 8) was 16.3826 µM and 16.8650 µM and 14.9839 µM and the “NADPH oxidation of KnmB1 … average value” ([1]; Time 8) was 16.0772 µM. The “NADPH oxidation of KnmB1 … (replicates 1, 2, 3)” value ([1]; Time 10) was 19.9679 µM and 20.5788 µM and 17.6688 µM, the “NADPH oxidation of KnmB1 … average value” ([1]; Time 10) was 19.4051 µM and the “NADPH oxidation of KnmB1 … (replicates 1, 2, 3)” value ([1]; Time 15) was 26.9614 µM and 30.3537 µM and 23.0064 µM. The “NADPH oxidation of KnmB1 … average value” ([1]; Time 15) was 26.7739 µM, the “NADPH oxidation of KnmB1 … (replicates 1, 2, 3)” value ([1]; Time 20) was 35.3859 µM and 38.9550 µM and 30.1286 µM and the “NADPH oxidation of KnmB1 … average value” ([1]; Time 20) was 34.8232 µM. For the same compound, the “NADPH oxidation of KnmB1 … (replicates 1, 2, 3)” value ([1]; Time 30) was 48.2476 µM and 54.0515 µM and 41.3344 µM, the “NADPH oxidation of KnmB1 … average value” ([1]; Time 30) was 47.8778 µM and the “NADPH oxidation of KnmB1 … (replicates 1, 2, 3)” value ([1]; Time 40) was 59.6785 µM and 66.9936 µM and 50.7878 µM. The “NADPH oxidation of KnmB1 … average value” ([1]; Time 40) was 59.1533 µM, the “NADPH oxidation of KnmB1 … (replicates 1, 2, 3)” value ([1]; Time 60) was 78.3119 µM and 86.3505 µM and 66.4309 µM and the “NADPH oxidation of KnmB1 … average value” ([1]; Time 60) was 77.0311 µM. For the same compound, the “NADPH oxidation, average value” ([2]; KnmB2+24, Time 0) was 0.0000 µM, the “NADPH oxidation, average value” ([2]; KnmB2+24, Time 1) was 5.8950 µM and the “NADPH oxidation, average value” ([2]; KnmB2+24, Time 2) was 11.0397 µM. The “NADPH oxidation, average value” ([2]; KnmB2+24, Time 3) was 17.6849 µM, the “NADPH oxidation, average value” ([2]; KnmB2+24, Time 4) was 25.7235 µM and the “NADPH oxidation, average value” ([2]; KnmB2+24, Time 5) was 35.2090 µM. For the same compound, the “NADPH oxidation, average value” ([2]; KnmB2+24, Time 8) was 55.4662 µM, the “NADPH oxidation, average value” ([2]; KnmB2+24, Time 10) was 66.9346 µM and the “NADPH oxidation, average value” ([2]; KnmB2+24, Time 15) was 84.8339 µM. The “NADPH oxidation, average value” ([2]; KnmB2+24, Time 20) was 95.5520 µM, the “NADPH oxidation, average value” ([2]; KnmB2+24, Time 30) was 104.1265 µM and the “NADPH oxidation, average value” ([2]; KnmB2+24, Time 40) was 102.4920 µM. The “NADPH oxidation, average value” ([2]; KnmB2+24, Time 60) was 111.3076 µM, the “NADPH oxidation, average value” ([2]; KnmB2-F205A+24, Time 0) was 0.0000 µM and the “NADPH oxidation, average value” ([2]; KnmB2-F205A+24, Time 1) was 0.7985 µM. For the same compound, the “NADPH oxidation, average value” ([2]; KnmB2-F205A+24, Time 2) was 1.4255 µM, the “NADPH oxidation, average value” ([2]; KnmB2-F205A+24, Time 3) was 1.3880 µM and the “NADPH oxidation, average value” ([2]; KnmB2-F205A+24, Time 4) was 1.7631 µM. The “NADPH oxidation, average value” ([2]; KnmB2-F205A+24, Time 5) was 1.7310 µM, the “NADPH oxidation, average value” ([2]; KnmB2-F205A+24, Time 8) was 1.8274 µM and the “NADPH oxidation, average value” ([2]; KnmB2-F205A+24, Time 10) was 2.3312 µM. The “NADPH oxidation, average value” ([2]; KnmB2-F205A+24, Time 15) was 2.6313 µM, the “NADPH oxidation, average value” ([2]; KnmB2-F205A+24, Time 20) was 3.4566 µM and the “NADPH oxidation, average value” ([2]; KnmB2-F205A+24, Time 30) was 5.0911 µM. The “NADPH oxidation, average value” ([2]; KnmB2-F205A+24, Time 40) was 7.7546 µM, the “NADPH oxidation, average value” ([2]; KnmB2-F205A+24, Time 60) was 10.8575 µM and the “NADPH oxidation, average value” ([2]; KnmB2-N291D+24, Time 0) was 0.0000 µM. For the same compound, the “NADPH oxidation, average value” ([2]; KnmB2-N291D+24, Time 2) was 1.4470 µM, the “NADPH oxidation, average value” ([2]; KnmB2-N291D+24, Time 4) was 2.7331 µM and the “NADPH oxidation, average value” ([2]; KnmB2-N291D+24, Time 5) was 4.2337 µM. For the same compound, the “NADPH oxidation, average value” ([2]; KnmB2-N291D+24, Time 8) was 6.8060 µM, the “NADPH oxidation, average value” ([2]; KnmB2-N291D+24, Time 10) was 8.5745 µM and the “NADPH oxidation, average value” ([2]; KnmB2-N291D+24, Time 15) was 11.8971 µM. For the same compound, the “NADPH oxidation, average value” ([2]; KnmB2-N291D+24, Time 20) was 16.3451 µM, the “NADPH oxidation, average value” ([2]; KnmB2-N291D+24, Time 30) was 24.5445 µM and the “NADPH oxidation, average value” ([2]; KnmB2-N291D+24, Time 40) was 34.3516 µM. For the same compound, the “NADPH oxidation, average value” ([2]; KnmB2-N291D+24, Time 60) was 49.1426 µM, the “NADPH oxidation, average value” ([2]; KnmB2-Y215A+24, Time 0) was 0.0000 µM and the “NADPH oxidation, average value” ([2]; KnmB2-Y215A+24, Time 1) was 0.2519 µM. For the same compound, the “NADPH oxidation, average value” ([2]; KnmB2-Y215A+24, Time 2) was 0.5145 µM, the “NADPH oxidation, average value” ([2]; KnmB2-Y215A+24, Time 3) was 0.7020 µM and the “NADPH oxidation, average value” ([2]; KnmB2-Y215A+24, Time 4) was 0.6913 µM. For the same compound, the “NADPH oxidation, average value” ([2]; KnmB2-Y215A+24, Time 5) was 0.7449 µM, the “NADPH oxidation, average value” ([2]; KnmB2-Y215A+24, Time 8) was 0.9968 µM and the “NADPH oxidation, average value” ([2]; KnmB2-Y215A+24, Time 10) was 1.3237 µM. The “NADPH oxidation, average value” ([2]; KnmB2-Y215A+24, Time 15) was 2.0043 µM, the “NADPH oxidation, average value” ([2]; KnmB2-Y215A+24, Time 20) was 2.2883 µM and the “NADPH oxidation, average value” ([2]; KnmB2-Y215A+24, Time 30) was 3.8532 µM. For the same compound, the “NADPH oxidation, average value” ([2]; KnmB2-Y215A+24, Time 40) was 5.5520 µM, the “NADPH oxidation, average value” ([2]; KnmB2-Y215A+24, Time 60) was 9.2926 µM and the “NADPH oxidation, average value” ([2]; KnmB2-Y215F+24, Time 0) was 0.0000 µM. For the same compound, the “NADPH oxidation, average value” ([2]; KnmB2-Y215F+24, Time 1) was 2.5724 µM, the “NADPH oxidation, average value” ([2]; KnmB2-Y215F+24, Time 2) was 4.4480 µM and the “NADPH oxidation, average value” ([2]; KnmB2-Y215F+24, Time 3) was 6.5113 µM. For the same compound, the “NADPH oxidation, average value” ([2]; KnmB2-Y215F+24, Time 4) was 8.5745 µM, the “NADPH oxidation, average value” ([2]; KnmB2-Y215F+24, Time 5) was 12.2187 µM and the “NADPH oxidation, average value” ([2]; KnmB2-Y215F+24, Time 8) was 19.5606 µM. The “NADPH oxidation, average value” ([2]; KnmB2-Y215F+24, Time 10) was 24.7588 µM, the “NADPH oxidation, average value” ([2]; KnmB2-Y215F+24, Time 15) was 37.2990 µM and the “NADPH oxidation, average value” ([2]; KnmB2-Y215F+24, Time 20) was 48.1779 µM. The “NADPH oxidation, average value” ([2]; KnmB2-Y215F+24, Time 30) was 66.6667 µM, the “NADPH oxidation, average value” ([2]; KnmB2-Y215F+24, Time 40) was 81.1361 µM and the “NADPH oxidation, average value” ([2]; KnmB2-Y215F+24, Time 60) was 100.0536 µM. The coupling efficiency ([2]; hydroxylatable effector for KnmB2, from NADPH consumption and H2O2 formation in time) was 0–45%.

From publication PMC9838390, “Discovery and biosynthesis of karnamicins as angiotensin converting enzyme inhibitors” (Nature Communications, 2023)
